Assay results published in article PMC10145531, “Platinum(IV)-Loaded Degraded Glycol Chitosan as Efficient Platinum(IV) Drug Delivery Platform” (Pharmaceutics, 2023).
Like-named read-outs stand apart in the source and are kept apart here.

Assays:
[1] = system: CH1/PA-1 (ovarian teratocarcinoma); set-up: method as in PMID 36432656; conditions: MTT, 96 h; cited from earlier work
[2] = system: SW480 (colon adenocarcinoma); set-up: method as in PMID 36432656; conditions: MTT, 96 h; cited from earlier work
[3] = system: A549 (non-small-cell lung carcinoma); set-up: method as in PMID 36432656; conditions: MTT, 96 h; cited from earlier work
[4] = system: A549 (non-small-cell lung carcinoma); assay: MTT cytotoxicity assay, A549 cells (96 h); format: cell-based, human
Protocol: (§1) Cell culture of the cell lines CH1/PA-1, SW480 and A549 was performed as described in reference. 4T1 cells were purchased from American Type Culture Collection, stored in a liquid nitrogen dewar and cultured in Roswell Park Memorial Institute (RPMI)-1640 medium supplemented with 10% foetal bovine serum (FBS) (Thermo Fisher, Waltham, MA, USA).
(§2) Cytotoxicity tests (96 h incubation) in the cell lines CH1/PA-1, SW480 and A549 were conducted as described in reference. Compounds were dissolved in supplemented minimum essential medium (MEM), except for compound C10, which was dissolved in sterile Milli-Q water.
(§3) Based on the required solubility, conjugates C1–C12 were forwarded for cytotoxicity assessments, whereas conjugates S1–S5 could not be tested due to solubility issues (Supporting Information, Table S1). The twelve substances C1–C12 were examined in comparison to the free platinum(IV) complexes and the unloaded dGC polymers with three different chain lengths for their cytotoxic activity in vitro. For this purpose, the colorimetric MTT assay was used in three human cancer cell lines (A549 (non-small-cell lung carcinoma), CH1/PA-1 (ovarian teratocarcinoma) and SW480 (colon adenocarcinoma)), yielding IC50 values in the low micromolar to nanomolar concentration range for all conjugates (Table 3, Supporting Information, Figures S18–S20). The three tested cell lines differ in their platinum sensitivity. SW480 and A549 cells are intrinsically cisplatin- and carboplatin-resistant due to their low expression of CTR1, whereas CH1/PA-1 cells show high chemosensitivity, particularly to platinum drugs.

[5] = system: SW480 (colon adenocarcinoma); assay: MTT cytotoxicity assay, SW480 cells (96 h); format: cell-based, human
Protocol: as §1, §2, §3

[6] = system: CH1/PA-1 (ovarian teratocarcinoma); assay: MTT cytotoxicity assay, CH1/PA-1 cells (96 h); format: cell-based, human
Protocol: as §1, §2, §3

[7] = Biodistribution study (platinum content of organs by ICP-MS) in non-tumour-bearing mice; format: in vivo, Balb/C mice
Protocol: The Animal Welfare and Ethical Review Body at University College London (UCL) authorised all animal experiments, which were performed under license from the Home Office, UK. […] All substances were applied intravenously (100 µL stock/20 g body weight) via tail vein injection. At the chosen time points, animals were culled with CO2, and the major organs (lung, heart, liver, spleen and kidneys) were collected and frozen in liquid nitrogen. The samples were transferred to the Institute of Inorganic Chemistry, University of Vienna, Austria, where the total platinum content of each sample was determined with an Agilent 7500 ICP-quadrupole MS instrument.
The major organs of liver, lung, heart, kidney and spleen were collected after two specific time points (1 h and 24 h), and the platinum content of each organ was evaluated with ICP-MS analysis (Figure 3).

[8] = MTT, 96 h incubation, read-out: IC50 [µM] A549
[9] = free platinum(IV) complexes: equals measured IC50 of Table 3, read-out: Concentration of Pt(IV) Units at IC50 [µM] A549
[10] = MTT, 96 h incubation, read-out: IC50 [µM] SW480
[11] = free platinum(IV) complexes: equals measured IC50 of Table 3, read-out: Concentration of Pt(IV) Units at IC50 [µM] SW480
[12] = MTT, 96 h incubation, read-out: IC50 [µM] CH1/PA-1
[13] = free platinum(IV) complexes: equals measured IC50 of Table 3, read-out: Concentration of Pt(IV) Units at IC50 [µM] CH1/PA-1

| Molecule | IC50 [1] | IC50 [2] | IC50 [3] | IC50 [4, 8] | IC50 [4, 9] | IC50 [5, 10] | IC50 [5, 11] | IC50 [6, 12] | IC50 [6, 13] | organ distribution of platinum (ICP-MS) ([7]; 1 h post i.v. administration, 6: 0.15 mg/100 µL, V3: 0.41 mg/100 µL) | change of platinum amount in organs at 24 h vs 1 h ([7]; 24 h post i.v. injection, 6: 0.15 mg/100 µL, V3: 0.41 mg/100 µL) | increase of platinum amount in the kidneys after 24 h vs 1 h ([7]; i.v., 0.15 mg/100 µL (5.5 mg/kg oxaliplatin equivalent), female Balb/C mice) | tolerability in mice ([7]; i.v., 6: equivalent to 5.5 mg/kg oxaliplatin, V3: equivalent to 2.75 mg/kg oxaliplatin) |
| --- | --- | --- | --- | --- | --- | --- | --- | --- | --- | --- | --- | --- | --- |
| N.N.[Cl][Pt][Cl] [Cisplatin, cisplatin] | 0.073 ± 0.001 µM | 2.3 ± 0.2 µM | 3.8 ± 1 µM |  |  |  |  |  |  |  |  |  |  |
| N.N.O=C([O-])C1(C(=O)[O-])CCC1.[Pt+2] [Carboplatin, carboplatin] | 0.79 ± 0.11 µM | 42 ± 10 µM | 38 ± 3 µM |  |  |  |  |  |  |  |  |  |  |
| O=C1[O][Pt]2([NH][C@@H]3CCCC[C@H]3[NH]2)[O]C1=O [Oxaliplatin, oxaliplatin] | 0.18 ± 0.01 µM | 0.29 ± 0.05 µM | 0.98 ± 0.21 µM |  |  |  |  |  |  |  |  |  |  |
| (OC-6-44)-Acetatodiammine(3-carboxypropanoato)dichloridoplatinum(IV) [compound 2] |  |  |  | 99 ± 17 µM | 99 ± 17 µM | 47 ± 10 µM | 47 ± 10 µM | 1.2 ± 0.5 µM | 1.2 ± 0.5 µM |  |  |  |  |
| (OC-6-44)-Acetato(3-carboxypropanoato)(1R,2R-cyclohexane-1,2-diamine)oxalatoplatinum(IV) [compound 6] |  |  |  | 70 ± 29 µM |  | 22 ± 8 µM |  | 4.1 ± 0.6 µM | 4.1 ± 0.6 µM | highest concentrations in the excretory organs (kidney and liver) | only slightly raised in all systemic organs | 2.1 fold | well tolerated without signs of toxicity |
| (OC-6-44)-Acetaodiammine(3-carboxypropanoato)(cyclobutane-1,1-dicarboxylato)platinum(IV) [compound 4] |  |  |  | > 200 µM | > 200 µM | > 200 µM | > 200 µM | 16 ± 6 µM | 16 ± 6 µM |  |  |  |  |
